Assay results: patent US8652442B2, “Bioluminescence imaging of myeloperoxidase activity in vivo, methods, compositions and apparatuses therefor” (Washington University, priority 2008, dated 2014)
Where two headings read alike, the source gives them in different places.

Assays:
[1] = system: PMA-stimulated whole blood
Description: Blood was freshly drawn (100-300 μL, by jugular puncture) from MPO^−/− or control MPO^+/+ mice. Blood was stored for up to 6 h in heparinized tubes at room temperature. Ex vivo BLI experiments using whole blood were performed in black-coated 96-well plates. Briefly, 1 μL of blood was diluted in 200 μL of MEBSS supplemented with luminol (100 μM), in the absence or presence of increasing concentrations of 4-ABAFT (0-6.6 mM), L-NMMA (1 mM) or DPI (10 μM). Samples were imaged (exposure time, 60 sec; binning, 4; FOV, 10 cm; open filter) before (t=0) and at the indicated time points after stimulation with PMA (5 μM) or vehicle (DMSO, 1 μL). Photon fluxes±s.e.m. were plotted as a function of time post PMA (min) or concentration of inhibitor.
Luminol-oxidation can be visualized by bioluminescence imaging and is dependent on MPO activity in vitro. Luminol-dependent BL of stimulated phagocytes and whole blood has been extensively studied using photo-multiplier tube (PMT)-based luminometers. To determine whether BLI could be similarly used to detect oxidant production in biological material, we used a charge-coupled device (CCD)-based bioluminescence imaging system to monitor phagocyte activation in heparinized whole blood (1 μL). Fresh heparinized whole blood (1 μL) was incubated with luminol (100 μM) in MEBSS (200 μL). […] Images show sequential color-coded maps of photon flux superimposed on black & white photographs of the assay plates (FIG. 1b).
It is important to note that metals such as iron are highly abundant in blood, but are confined to specific cellular compartments, i.e., hemoglobin in erythrocytes or cytochromes in mitochondrial membranes. […] At t=0, PMA was added to a final concentration of 5 μM and BL was monitored for 60 min at 7.5 min intervals.
To determine the relative contribution of other ROS to the BL signal induced by luminol in stimulated blood ex vivo, we focused on two enzymatically-catalyzed ROS products, O2.- and NO., generated by the Phox complex and nitric oxide synthase (NOS), respectively, as well as their reaction product, peroxynitrite (ONOO^−). Freshly-drawn blood (1 μL) from an MPO^+/+ mouse was incubated with the NOS inhibitor L-NMMA (1 mM) or the Phox inhibitor DPI (10 μM), respectively, and imaged 20 min after stimulation with PMA (5 μM).

MPO [2] = biological target: T1, MPO (Homo sapiens, UniProt P05164); experiment: Dye stability: absorption spectra after treatment with H2O2 and MPO; format: physicochemical; parameters: purchased Calbiochem; conditions: H2O2 and MPO in Tris buffer, 30, 60 and 90 min
T1 sequence (P05164 279-745 limits assumed): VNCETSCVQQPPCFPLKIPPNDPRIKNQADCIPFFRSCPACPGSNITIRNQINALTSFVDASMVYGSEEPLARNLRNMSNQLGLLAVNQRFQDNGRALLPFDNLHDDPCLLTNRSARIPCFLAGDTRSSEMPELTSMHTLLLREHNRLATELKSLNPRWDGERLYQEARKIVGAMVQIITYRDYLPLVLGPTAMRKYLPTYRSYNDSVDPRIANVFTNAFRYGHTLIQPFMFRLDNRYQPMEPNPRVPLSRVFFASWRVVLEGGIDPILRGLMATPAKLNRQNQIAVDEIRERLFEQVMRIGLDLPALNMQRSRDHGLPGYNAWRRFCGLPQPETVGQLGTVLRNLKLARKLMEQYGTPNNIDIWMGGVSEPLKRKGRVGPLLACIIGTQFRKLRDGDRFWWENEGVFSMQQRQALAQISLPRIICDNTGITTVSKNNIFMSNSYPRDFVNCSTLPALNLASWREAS
T1 sequence (P05164 165-273 limits assumed): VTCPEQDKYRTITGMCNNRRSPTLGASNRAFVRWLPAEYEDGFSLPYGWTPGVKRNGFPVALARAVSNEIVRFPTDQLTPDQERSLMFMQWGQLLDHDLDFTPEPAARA
Description: In these experiments, absorption spectra were collected for Texas Red (TXR) and Infrared Dye 820 (IRD) treated with H2O2 and MPO (5 mU) in Tris buffer solution for 30 min, 60 min and 90 min as indicated. […] In these experiments, absorption spectra were collected (RLU vs nm wavelength) of Texas Red (TXR) and Infrared Dye 820 (IRD) treated with H2O2 and MPO ([…]) in Tris buffer solution for 30 min, 60 min and 90 min as indicated. (FIG. 17). […] (FIG. 18). […] Thus, in vitro NIR bioluminescence can be used to study dye and fluorophore stability under various experimental conditions. […]

human blood = experiment: Ex vivo BLI of LGTR and luminol in human whole blood after PMA stimulation; format: cell-based
Description: For analysis of LGTR in whole blood, human blood was freshly drawn from a volunteer (by venous puncture). Blood was stored for up to 6 h in heparinized tubes at room temperature. Ex vivo BLI experiments using whole blood were performed in black-coated 96-well plates. Briefly, 200 μL of blood was added to the wells. LGTR, luminol, or DMSO ([…] of each) were added to the wells. Samples were imaged (exposure time, 160 sec; binning, 8; FOV, 10 cm; open filter or >590 nm) before (t=0) and at the indicated time points after stimulation with PMA (5 μM) or vehicle (ethanol, 1 μL). Photon fluxes±s.e.m. were plotted as a function of time post PMA (min) (FIG. 19). […] In addition, to isolate the buffy coat (white cells), whole blood was centrifuged at 700 rpm for 8 min, and subjected to the same analysis.

MPO activity [3] = conditions: mouse, in vivo
Description: GzB→Tax mice were monitored for tumorigenesis on ears, limbs and tails by visual examination and palpation, weekly, for 200-300 days after birth. Ten mice with visible tumors at various sizes (1-8 mm in diameter) and locations were administered luminol (200 mg/kg BW, i.p.) and imaged (exposure time, 300 sec; binning, 4; FOV, 10 cm) under anesthesia (isoflurane inhalation). Tumors were excised, fixed in paraformaldehyde (4%), paraffin-embedded, sectioned (5 μm) and stained with H&E or immuno-stained for MPO (see below).
We next used BLI to examine tumor-bearing GzB→Tax mice after intraperitoneal administration of luminol (200 mg/kg BW, i.p., FIG. 5 c-g).

[4] = systemic administration; cited from earlier work
MPO [5] = biological target: T1, MPO
Description: Matrigel was used to immobilize human MPO and/or GOX (that produces H2O2) in vivo (Chen, J. W., et al., Radiology 240, 473-481, 2006). Briefly, GOX (30 U), MPO (20 U), vehicle (PBS) or GOX+MPO (30 and 20 U, respectively) were added to Matrigel (200 μL) at 4° C. The four different mixtures were injected subcutaneously into different locations on the back of NCr nu/nu mice. Thirty minutes later, mice were anesthetized (isoflurane inhalation), administered luminol (200 mg/kg BW, i.p.) and imaged sequentially (exposure time, 60 sec; binning, 4; FOV, 7.5 cm) every 5 minutes up to one hour. Regions of interest (ROI) were manually selected over the four implants and total photon emissions from each implant were plotted as a function of time.
We next determined the biochemical requirements and pharmacokinetics of luminol-BL in an intact animal and whether MPO activity could be imaged in vivo. […] We embedded GOX (30 U), MPO (20 U); MPO+GOX (same concentrations) or vehicle (PBS) in Matrigel solution and established subcutaneous implants of these mixtures on the backs of NCR nu/nu mice (n=3, FIG. 2a).
Photon fluxes were determined from ROI's, manually drawn over the different implants and plotted as a function of time.

purified MPO = biological target: T2, purified MPO (Homo sapiens, UniProt P05164); experiment: Output of LGTR and luminol in vitro with purified MPO and H2O2; format: biochemical; conditions: for light output: purified MPO mixed with 100% serum rather than MEBSS
T2 construct: purchased Calbiochem
T2 sequence (P05164 279-745 limits assumed): as the sequence (P05164 279-745 limits assumed) above
T2 sequence (P05164 165-273 limits assumed): as the sequence (P05164 165-273 limits assumed) above
Excerpt: To analyze the output of LGTR and luminol in vitro, […] of each were mixed with purified MPO (5 mU) and vehicle (MEBSS).

MPO activity [6] = conditions: mouse, in vivo; remark: listed apart in the source
Description: To induce acute skin inflammation (Fretland, D. J. et al. Inflammation 19, 333-346, 1995), PMA (100 μM, 20 μL) or vehicle (ethanol) were applied topically (left and right ear, respectively) on the inner and outer surface of the earlobe of MPO^−/− (n=5) or control (n=5) mice. Twenty-four and 48 hours later, luminol was administered (200 mg/kg BW, i.p.) and 10 min later mice were imaged (exposure time, 180 see; binning, 4; FOV, 7.5 cm) under anesthesia (isoflurane inhalation). ROI's were manually selected over the left and right ear lobes (PMA-treated and untreated, respectively) and over the central part of the skull (background). Data were expressed as (PMA—background)/(vehicle—background)±s.e.m.
Topical application of PMA onto the earlobes of mice induces acute dermatitis, manifested by local swelling, erythema and infiltration of neutrophils. […] We therefore used this model for assessment of MPO activity by luminol-BLI in both MPO^+/+ and MPO^−/− mice. Acute dermatitis was generated by topical application of PMA on the left ear lobe of MPO^+/+ or MPO^−/− mice (shown are three representative mice for each genetic background, n=5 for each). Twenty-four hours after topical application of PMA, mice were imaged (FIG. 3a) following the administration of luminol (200 mg/kg BW, i.p.).

MPO activity [7] = conditions: mouse, in vivo; remark: listed apart in the source
Description: MPO^−/− (n=5) or control MPO^+/+ (n=5) mice were briefly anaesthetized (isoflurane inhalation) and LPS (20 μg in 20 μL PBS) or vehicle (PBS, 20 μL) were injected into the left or right ankles, respectively, using a 30-gauge needle. Mice were administered luminol (as above) and imaged immediately after LPS administration under anesthesia (isoflurane inhalation), as well as 1, 2, 3, 4 and 5 days later (exposure time, 180 sec; binning, 4; FOV, 10 cm). ROIs were manually selected over the left and right feet (LPS-treated and untreated, respectively) and over the proximal part of the tail (background). Data were expressed as (LPS—background)/(vehicle—background)±s.e.m.
We next imaged MPO activity in a focal arthritis model. […] LPS was injected to the joints of the left lower limbs of wild type MPO^+/+ (FIG. 3b, left panel, n=5) or MPO^−/− mice (FIG. 3b, right panel, n=5). Vehicle (PBS) was injected into the joints of the right lower limbs. At t=0 (before LPS injection), 24, 48, 72, 96 and 120 h, luminol was administered (200 mg/kg BW, i.p.) and mice were imaged.

MPO activity [8] = conditions: 24 h after DNFB, luminol 200 mg/kg BW i.p.
Description: Briefly, murine anti-DNP IgE (20 μg in 100 μl, Sigma-Aldrich) was injected intravenously into 13 MPO^+/+ and 9 MPO^−/− mice. One control mouse of each genetic MPO background was injected with vehicle (saline) only. Twenty-four hours later, all left ears were painted with DNFB (0.2% in acetone:olive oil, 1:3) and all right ears were painted with vehicle (acetone:olive oil, 1:3). On the next day, all mice were imaged following luminol administration (200 mg/kg BW, i.p.). Mice were euthanized immediately after imaging and histological specimens were prepared from both left and right ears by fixation with paraformaldehyde (4%), de-calcification (24 h in 14% EDTA), paraffin-embedding, sectioning (5 μm) and staining with H&E. For each condition, eosinophils were counted in 5 HPF (magnification ×400).
Eosinophil-dominant recruitment and activation was induced by passive immunization against DNP followed by topical challenge with DNFB (Ray, M., et al., J. Immunol. 131, 1096-1102, 1983) in both MPO+/+ control as well as MPO^−/− mice. […] Acute allergic dermatitis was induced by passive immunization with anti-DNP IgE and topical challenge with DNFB on the left ear lobes of MPO^+/+ (n=14) and MPO^−/− (n=10) mice. Right ears served as vehicle controls and mice challenged with DNFB, but not anti-DNP IgE, served as negative controls. […]

MPO activity [9] = experiment: BLI of allergic contact hypersensitivity with topical LGTR or luminol, optical filter sets; format: in vivo, mice
Description: Thirty min later, mice were simultaneously imaged in the IVIS 100 imaging system (FOV, 10 cm; binning, 8; acquisition time, 300 sec; f/stop, 1) using four different optical filter sets in rapid sequence: 1) no filter, 2) <510 nm filter, 3) >590 nm filter, and 4) >650 nm filter (FIG. 22, FIG. 23). The photon flux as a percentage of an open filter was compared for both compounds (FIG. 23).
Briefly, murine anti-DNP IgE (20 μg, 100 μl) was intravenously injected to two C57/B mice.
Administration of luminol derivatives and imaging: Forty-eight hours post DNFB treatment, luminol-glycine Texas Red (LGTR, 1 mM in DMSO, left mouse) or luminol (1 mM In DMSO, right mouse) were applied topically (45 μl per ear) on both left and right ears. Thirty minutes later, mice were simultaneously imaged using the IVIS 100 imaging system (FOV 10 cm; binning, 8; acquisition time. 300 sec; f/stop, 1) using four different optical filler sets: (1) no filter, (2)<510 nm filler, (3)>590 nm filter and (4)>650 nm filter.

[10] = whole blood 1 μL, luminol 100 μM, PMA 5 μM

CN=C(N)NCCC[C@H](N)C(=O)O.O=C(O)CC(O)(CC(=O)O)C(=O)O [L-NMMA, L-N^G-monomethyl arginine citrate]
effect on luminol-dependent BL ([1]; L-NMMA 1 mM, MPO+/+ mouse blood, imaged 20 min after PMA 5 μM): did not cause a significant reduction

CC1(C)C(=CC=C2CCCC(C=CC3=[N+](CCCCS(=O)(=O)[O-])c4ccc5ccccc5c4C3(C)C)=C2Cl)N(CCCCS(=O)(=O)[O-])c2ccc3ccccc3c21.[Na+] [IRD]
stability on exposure to MPO over time (MPO [2]): loss of IRD molecular integrity over time

Nc1cccc2c(=O)[nH][nH]c(=O)c12 [luminol, 5-amino-2,3-dihydro-1,4-phthalazine-dione]
photon output compared (human blood; human whole blood following PMA stimulation): exceeded LGTR
localization of luminol-BL in tumor-bearing mice (MPO activity [3]): colocalized with foci of tumorigenesis
absorption and excretion [4]: well absorbed and rapidly excreted
toxicity [4]: relatively non-toxic
signal-to-background ratio for luminol-BLI (MPO [5]; MPO+GOX Matrigel implants in vivo): exceeded 3000
absorption upon i.p. injection (MPO [5]; luminol 200 mg/kg BW i.p.): rapidly absorbed
time to maximum BL after injection (MPO [5]; luminol 200 mg/kg BW i.p., MPO+GOX implant, NCr nu/nu mice): 10 min
light output (purified MPO): no light output
BL of PMA-treated ears over vehicle-treated ears (MPO activity [6]): 1.9±0.5 fold
background-normalized BL of PMA-treated ears over vehicle-treated ears (MPO activity [6]): 13.1±0.2 fold
signal-to-background ratio ([1]; few thousand phagocytes in 1 μL whole blood): > 30
luminol-BL with whole blood of MPO−/− mice ([1]; luminol 100 μM, PMA 5 μM, 0-55 min): undetectable
peak BL over background values [1, 10]: 30-40 fold
time of BL peak post stimulation [1, 10]: 20 to 25 min
BL signal over background (MPO activity [7]): 10 to 15 fold
luminol-BL from LPS- or vehicle-treated joints (MPO activity [7]): negligible
peak BL emission, fold over vehicle-treated foot (MPO activity [7]): 25 to 30 fold
luminol-BL signal from inflamed ears (MPO activity [8]; MPO+/+ mice): substantial luminol-BL
luminol-BL signal from inflamed ears (MPO activity [8]; MPO−/− mice): no significant luminol-BL signal

O=C(CCCCCNS(=O)(=O)c1ccc(C2=c3cc4c5c(c3Oc3c2cc2c6c3CCCN6CCC2)CCC[N+]=5CCC4)c(S(=O)(=O)[O-])c1)NCC(=O)Nc1cccc2c(=O)[nH][nH]c(=O)c12 [LGTR]
signal over the luminol signals (human blood; early time points in whole blood): greater than 75%
fraction of signal that was red (>590 nm) (human blood; human whole blood, 12 min post PMA stimulation): greater than 75%
percent of the signal greater than 590 nm (red spectrum) (purified MPO; purified MPO 5 mU in MEBSS buffer, H2O2 50 μM): ~75%
brightness compared with luminol (purified MPO; purified MPO in MEBSS buffer): brighter than luminol
light output (purified MPO): no light output
BL after induction of acute contact hypersensitivity (MPO activity [9]; MPO+/+ mice, 1 mM in DMSO topical, 45 μl per ear): substantial LGTR-BL
photon flux compared with luminol (MPO activity [9]; filters >590 and 650 nm, topical 1 mM in DMSO): 3-4 fold

c1ccc2c(c1)[I+]c1ccccc1-2 [DPI, diphenyleneiodonium]
effect on PMA-induced BL ([1]; DPI 10 μM, MPO+/+ mouse blood, imaged 20 min after PMA 5 μM): complete abrogation

NCC(=O)Nc1cccc2c(=O)[nH][nH]c(=O)c12 [luminol-glycine, 2-Amino-N-(1,4-dioxo-1,2,3,4-tetrahydrophthalazine-5-yl)acetamide]
signal generated (purified MPO; control compound, purified MPO): no signal
